Where a name gives a salt, the structure may show the parent alone. Read-outs that look alike come from different tables or passages of the source.
Legend:
Human BACE1 = molecular target: T1, Human BACE1 (Homo sapiens, UniProt P56817); experiment: Diluted TR-FRET assay; format: biochemical; conditions: 50 times less enzyme, 6.5 h reaction time at r.t.; read-out: IC50 BACE1 (dil. TR-FRET)
T1 construct: the soluble part of the human β-Secretase1 (AA1-AA460) was cloned using the BACE1(1-460)-(AVT)-Fc-pGEN-IRES-neo mammalian expression vector; AVT linker (C); made in house
T1 sequence (P56817 22-460): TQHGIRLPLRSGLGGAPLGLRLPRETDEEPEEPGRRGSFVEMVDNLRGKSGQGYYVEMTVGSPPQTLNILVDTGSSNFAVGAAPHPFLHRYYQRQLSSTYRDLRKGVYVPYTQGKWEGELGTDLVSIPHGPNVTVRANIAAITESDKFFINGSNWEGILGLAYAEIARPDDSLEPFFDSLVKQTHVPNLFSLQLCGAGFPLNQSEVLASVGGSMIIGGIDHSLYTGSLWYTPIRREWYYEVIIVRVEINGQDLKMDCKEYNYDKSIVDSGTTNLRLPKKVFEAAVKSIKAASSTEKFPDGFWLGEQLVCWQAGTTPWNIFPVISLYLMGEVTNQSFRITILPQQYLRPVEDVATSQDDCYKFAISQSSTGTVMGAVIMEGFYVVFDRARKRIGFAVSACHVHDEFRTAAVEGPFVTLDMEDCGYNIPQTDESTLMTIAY
Experimental: (§1) The β-secretase enzyme used in the TR-FRET was prepared as follows:
(§2) Human BACE1: the cDNA for the soluble part of the human β-Secretase1 (AA1-AA460) was cloned using the BACE1(1-460)-(AVT)-Fc-pGEN-IRES-neo mammalian expression vector. The gene was fused to the Fe domain of IgG1 (affinity tag) and stably cloned into HEK 293 cells. […]
A multidrop Combi was used for the liquid handling. Enzyme (7 μL) was added to the compound plate (containing 0.8 μL of compound in dimethylsulphoxide). The plate was incubated for 10 minutes. […] The reaction was stopped with the addition of Stop solution (5.5 μL, NaOAC, pH 9). Fluorescence was measured on a Pherastar plate reader using HTRF module. […] 5 reference inhibitors with different affinities were used at all screen occasions in dose response.

SH-SY5Y cells = experiment: sAPPβ release assay
Experimental: Cells were thawed and seeded at a concentration of around 10000 cells/well in DMEM/F-12 with Glutamax, 10% FCS and 1% non-essential amino acids to a 384-well tissue culture treated plate, 30 μL cell susp/well. The cell plates were then incubated for 7-24 h at 37° C., 5% CO2.
The cell medium was removed, followed by addition of 50 μL compound diluted in DMEM/F-12 with Glutamax, 10% FCS, 1% non-essential amino acids to a final cone of 0.5% DMSO. The compounds were incubated with the cells for 16-17 h (overnight) at 37° C., 5% CO2.
Meso Scale Discovery (MSD) plates were used for the detection of sAPP release. MSD sAPPβ plates were blocked in 1% BSA in Tris wash buffer for 1 h on shake at r.t. and washed 1 time in Tris wash buffer. […] The MSD plates were incubated with shaking at r.t. for 2 h and the media discarded. 10 μL detection antibody was added (1 nM) per well followed by incubation with shaking at r.t. for 2 h and then discarded. 35 μL Read Buffer was added per well and the plates were read in a Meso Scale Discovery SECTOR6000 Imager.

Human BACE2 = molecular target: T2, Human BACE2 (Homo sapiens, UniProt Q9Y5Z0); experiment: TR-FRET assay; format: biochemical; conditions: enzyme 2.7 μg/mL, substrate 100 nM, pH4.5
T2 construct: the soluble part of the human β-Secretase2 (AA1-AA473) was cloned using BACE2(1-473)-(AVT)-Fc-pDEST12.2 mammalian expression vector; AVT linker (C); made in house
T2 sequence (Q9Y5Z0 21-473): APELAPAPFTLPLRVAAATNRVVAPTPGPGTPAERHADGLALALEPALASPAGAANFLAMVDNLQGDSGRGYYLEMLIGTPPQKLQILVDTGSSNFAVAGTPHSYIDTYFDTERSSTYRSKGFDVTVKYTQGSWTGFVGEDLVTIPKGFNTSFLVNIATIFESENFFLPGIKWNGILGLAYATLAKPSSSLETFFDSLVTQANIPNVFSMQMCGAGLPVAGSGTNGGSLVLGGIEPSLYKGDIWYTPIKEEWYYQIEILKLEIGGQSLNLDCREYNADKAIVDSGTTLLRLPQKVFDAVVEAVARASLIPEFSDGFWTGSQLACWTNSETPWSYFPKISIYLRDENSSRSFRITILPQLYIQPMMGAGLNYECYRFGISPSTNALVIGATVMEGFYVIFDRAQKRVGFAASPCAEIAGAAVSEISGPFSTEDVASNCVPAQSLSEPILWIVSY
Experimental: as §1, §2
A multidrop Combi was used for the liquid handling. Enzyme (7 μL) was added to the compound plate (containing 0.8 μL of compound in dimethylsulphoxide). The plate was incubated for 10 minutes. Substrate (8 μL) was then added, and the reaction proceeded for 17 minutes at r.t. The reaction was stopped with the addition of Stop solution (5.5 μL, NaOAC, pH 9). Fluorescence was measured on a Pherastar plate reader using HTRF module. […] 5 reference inhibitors with different affinities were used at all screen occasions in dose response.

[1] = Homo sapiens, SH-SY5Y, read-out: IC50 Cell (sAPPβ release, nM), SH-SY5Y cells, compounds incubated 16-17 h
[2] = Homo sapiens, SH-SY5Y, read-out: IC50 Cell (sAPPβ release, nM)

Structure (SMILES): [2H]C1([2H])OC(N)=N[C@]12c1cc(C#CC(C)C)ccc1C[C@@]21CC[C@H](O)[C@@H](C)C1 (racemic) [Compound 11, (1S,3S,4S)-2″-amino-3-methyl-6′-(3-methylbut-1-yn-1-yl)-3′H,5″H-dispiro[cyclohexane-1,2′-indene-1′,4″-oxazol]-5″,5″-d2-4-ol and (1R,3R,4R)-2″-amino-3-methyl-6′-(3-methylbut-1-yn-1-yl)-3′H,5″H-dispiro[cyclohexane-1,2′-indene-1′,4″-oxazol]-5″,5″-d2-4-ol]
- IC50 (Human BACE1): 266 nM
- IC50 (SH-SY5Y cells; [1]): 0.9 nM
- IC50 (Human BACE2): 519 nM

Structure (SMILES): [2H]C1([2H])OC(N)=N[C@]12c1cc(-c3cncc(C4CC4)c3)ccc1C[C@]21CC[C@@H](OC)[C@H](C)C1 [Compound 1, (1R,1′R,3R,4R)-6′-(5-cyclopropylpyridin-3-yl)-4-methoxy-3-methyl-3′H,5″H-dispiro[cyclohexane-1,2′-indene-1′,4″-oxazol]-5″,5″-d2-2″-amine formate Salt]
- IC50 (Human BACE1): 239 nM
- IC50 (SH-SY5Y cells; [1]): 5.3 nM
- IC50 (Human BACE2): 144 nM

Structure (SMILES): [2H]C1([2H])OC(N)=N[C@]12c1cc(-c3cncc(C#CC)c3)ccc1C[C@]21CC[C@@H](OC)[C@H](C)C1 [Compound 2, (1R,1′R,3R,4R)-4-methoxy-3-methyl-6′-(5-(prop-1-yn-1-yl)pyridin-3-yl)-3′H,5″H-dispiro[cyclohexane-1,2′-indene-1′,4″-oxazol]-5″,5″-d2-2″-amine]
- IC50 (Human BACE1): 6.2 nM
- IC50 (SH-SY5Y cells; [1]): 0.27 nM
- IC50 (Human BACE2): 17 nM

Structure (SMILES): [2H]C1([2H])OC(N)=N[C@]12c1cc(-c3cncc(C#CC)c3)ccc1C[C@@]21CC[C@H](OC)[C@@H](C)C1 [Compound 3, (1S,1′R,3S,4S)-4-methoxy-3-methyl-6′-(5-(prop-1-yn-1-yl)pyridin-3-yl)-3′H,5″H-dispiro[cyclohexane-1,2′-indene-1′,4″-oxazol]-5″,5″-d2-2″-amine]
- IC50 (Human BACE1): 1.1 nM
- IC50 (SH-SY5Y cells; [1]): 0.2 nM
- IC50 (Human BACE2): 16 nM

Structure (SMILES): [2H]C1([2H])OC(N)=N[C@]12c1cc(-c3cncc(Cl)c3)ccc1C[C@@]21CC[C@H](OC)[C@@H](C)C1 [Compound 4, (1S,1′R,3S,4S)-6′-(5-chloropyridin-3-yl)-4-methoxy-3-methyl-3′H,5″H-dispiro[cyclohexane-1,2′-indene-1′,4″-oxazol]-5″,5″-d2-2″-amine]
- IC50 (Human BACE1): 6.8 nM
- IC50 (SH-SY5Y cells; [1]): 0.39 nM
- IC50 (Human BACE2): 37.8 nM

Structure (SMILES): [2H]C1([2H])OC(N)=N[C@]12c1cc(-c3cncc(C4CC4)c3)ccc1C[C@@]21CC[C@H](OC)[C@@H](C)C1 [Compound 6, (1S,1′R,3S,4S)-6′-(5-cyclopropylpyridin-3-yl)-4-methoxy-3-methyl-3′H,5″H-dispiro[cyclohexane-1,2′-indene-1′,4″-oxazol]-5″,5″-d2-2″-amine]
- IC50 (Human BACE1): 54 nM
- IC50 (SH-SY5Y cells; [1]): 2.2 nM
- IC50 (Human BACE2): 99 nM

Structure (SMILES): [2H]C1([2H])OC(N)=N[C@]12c1cc(-c3cncc(Cl)c3)ccc1C[C@]21CC[C@@H](OC)[C@H](C)C1 [Compound 7, (1R,1′R,3R,4R)-6′-(5-chloropyridin-3-yl)-4-methoxy-3-methyl-3′H,5″H-dispiro[cyclohexane-1,2′-indene-1′,4″-oxazol]-5″,5″-d2-2″-amine]
- IC50 (Human BACE1): 11.7 nM
- IC50 (SH-SY5Y cells; [1]): 0.45 nM
- IC50 (Human BACE2): 22.7 nM

Structure (SMILES): [2H]C1([2H])OC(N)=N[C@]12c1cc(-c3cccnc3)ccc1C[C@@]21CC[C@H](OC)[C@@H](C)C1 [Compound 8, (1S,1′R,3S,4S)-4-methoxy-3-methyl-6′-(pyridin-3-yl)-3′H,5″H-dispiro[cyclohexane-1,2′-indene-1′,4″-oxazol]-5″,5″-d2-2″-amine]
- IC50 (Human BACE1): 54.7 nM
- IC50 (SH-SY5Y cells; [1]): 0.76 nM
- IC50 (Human BACE2): 716 nM

Structure (SMILES): CO[C@H]1CC[C@]2(CC1)Cc1ccc(C#CC(C)C)cc1C21COC(N)=N1 (stereo partly drawn) [Compound 12, (1r,4r)-4-methoxy-6′-(3-methylbut-1-yn-1-yl)-3′H,5″H-dispiro[cyclohexane-1,2′-indene-1′,4″-oxazol]-2″-amine]
- IC50 (Human BACE1): 135 nM
- IC50 (SH-SY5Y cells; [1]): 5.9 nM
- IC50 (Human BACE2): 128 nM

Structure (SMILES): [2H]C1([2H])OC(N)=N[C@]12c1cc(-c3cccnc3)ccc1C[C@]21CC[C@@H](OC)[C@H](C)C1 [Compound 13, (1R,1′R,3R,4R)-4-methoxy-3-methyl-6′-(pyridin-3-yl)-3′H,5″H-dispiro[cyclohexane-1,2′-indene-1′,4″-oxazol]-5″,5″-d2-2″-amine]
- IC50 (Human BACE1): 161 nM
- IC50 (SH-SY5Y cells; [1]): 1.7 nM
- IC50 (Human BACE2): 217 nM

Structure (SMILES): CC#Cc1cncc(-c2ccc3c(c2)C2(COC(N)=N2)[C@]2(CC[C@H](OC)CC2)C3)c1 (stereo partly drawn) [Compound 15, (1r,4r)-4-methoxy-6′-(5-(prop-1-yn-1-yl)pyridin-3-yl)-3′H,5″H-dispiro[cyclohexane-1,2′-indene-1′,4″-oxazol]-2″-amine]
- IC50 (Human BACE1): 16 nM
- IC50 (SH-SY5Y cells; [1]): 1.1 nM
- IC50 (Human BACE2): 23 nM

Structure (SMILES): [2H]C1([2H])OC(N)=NC12c1cc(-c3cncc(Cl)c3)ccc1C[C@]21CC[C@@H](OC)CC1 (stereo partly drawn) [Compound 16, (1r,4r)-6′-(5-chloropyridin-3-yl)-4-methoxy-3′H,5″H-dispiro[cyclohexane-1,2′-indene-1′,4″-oxazol]-5″,5″-d2-2″-amine]
- IC50 (Human BACE1): 128 nM
- IC50 (SH-SY5Y cells; [1]): 3.8 nM
- IC50 (Human BACE2): 105 nM

Structure (SMILES): [2H]C1([2H])OC(N)=N[C@]12c1cc(-c3cc(F)cc(C#N)c3)ccc1C[C@]21CC[C@@H](OC)[C@H](C)C1 [Compound 17, 3-((1R,1′R,3R,4R)-2″-amino-4-methoxy-3-methyl-3′H,5″H-dispiro[cyclohexane-1,2′-indene-1′,4″-oxazol]-6′-yl-5″,5″-d2)-5-fluorobenzonitrile]
- IC50 (Human BACE1): 46.7 nM
- IC50 (SH-SY5Y cells; [1]): 2.1 nM
- IC50 (Human BACE2): 30.2 nM

Structure (SMILES): [2H]C1([2H])OC(N)=N[C@]12c1cc(-c3cc(F)cc(C#N)c3)ccc1C[C@@]21CC[C@H](OC)[C@@H](C)C1 [Compound 19, 3-((1S,1′R,3S,4S)-2″-amino-4-methoxy-3-methyl-3′H,5″H-dispiro[cyclohexane-1,2′-indene-1′,4″-oxazol]-6′-yl-5″,5″-d2)-5-fluorobenzonitrile]
- IC50 (Human BACE1): 244 nM
- IC50 (SH-SY5Y cells; [1]): 2 nM
- IC50 (Human BACE2): 43.6 nM

Structure (SMILES): [2H]C1([2H])OC(N)=N[C@]12c1cc(-c3cncc(C)c3)ccc1C[C@]21CC[C@@H](OC)[C@H](C)C1 [Compound 20, (1R,1′R,3R,4R)-4-methoxy-3-methyl-6′-(5-methylpyridin-3-yl)-3′H,5″H-dispiro[cyclohexane-1,2′-indene-1′,4″-oxazol]-5″,5″-d2-2″-amine]
- IC50 (Human BACE1): 143 nM
- IC50 (SH-SY5Y cells; [1]): 2.9 nM
- IC50 (Human BACE2): 186 nM

Structure (SMILES): [2H]C1([2H])OC(N)=NC12c1cc(-c3cncc(C)c3)ccc1C[C@@]21CC[C@H](OC)[C@@H](C)C1 (stereo partly drawn) [Compound 21, (1S,3S,4S)-4-methoxy-3-methyl-6′-(5-methylpyridin-3-yl)-3′H,5″H-dispiro[cyclohexane-1,2′-indene-1′,4″-oxazol]-5″,5″-d2-2″-amine]
- IC50 (Human BACE1): 67 nM
- IC50 (SH-SY5Y cells; [1]): 1.6 nM
- IC50 (Human BACE2): 256 nM

Structure (SMILES): [2H]C1([2H])OC(N)=NC12c1cc(-c3cc(Cl)cc(C#N)c3)ccc1C[C@@]21C[C@@H](C)[C@H](OC)[C@@H](C)C1 (stereo partly drawn) [Compound 52, 3-((1r,3R,4r,5S)-2″-amino-4-methoxy-3,5-dimethyl-3′H,5″H-dispiro[cyclohexane-1,2′-indene-1′,4″-oxazol]-6′-yl-5″,5″-d2)-5-chlorobenzonitrile]
- IC50 (Human BACE1): 4.7 nM
- IC50 (SH-SY5Y cells; read-out: IC50 Cell (sAPPβ release), SH-SY5Y cells, compounds incubated 16-17 h): 4.3 nM

Structure (SMILES): [2H]C1([2H])OC(N)=N[C@]12c1cc(-c3cccnc3)ccc1C[C@]21CC[C@@H](OC)CC1 [Compound 117, {(1r,1′R,4R)-4-methoxy-6′-(pyrimidin-3-yl)-3′H,5″H-dispiro[cyclohexane-1,2′-indene-1′,4″-oxazol]-5″,5″-d2-2″-amine}]
- IC50 (Human BACE1): 341 nM
- IC50 (SH-SY5Y cells; [2]): 7 nM

Structure (SMILES): [2H]C1([2H])OC(N)=N[C@]12c1cc(-c3cncnc3)ccc1C[C@]21CC[C@@H](OC)CC1 [Compound 118, {(1r,1′R,4R)-4-methoxy-6′-(pyrimidin-5-yl)-3′H,5″H-dispiro[cyclohexane-1,2′-indene-1′,4″-oxazol]-5″,5″-d2-2″-amine}]
- IC50 (Human BACE1): 287 nM
- IC50 (SH-SY5Y cells; [2]): 6 nM
